Experimental data published in PMC7717600, “Novel [(N-alkyl-3-indolylmethylene)hydrazono]oxindoles arrest cell cycle and induce cell apoptosis by inhibiting CDK2 and Bcl-2: synthesis, biological evaluation and in silico studies” (Journal of Enzyme Inhibition and Medicinal Chemistry, 2020).

Experiments:
NCI-H460 = test: NCI SRB screening; type: cell-based, human; details: NCI-H460, 10 μM
HCC-2998 = test: NCI SRB screening; type: cell-based, human; details: HCC-2998, 10 μM
A-549 = test: SRB anti-proliferative assay; type: cell-based; details: Homo sapiens, A549; A-549, SRB, mean ± SE of 3
Protocol: Staurosporine, a clinically used antitumor drug, was co-assayed as a reference agent for the experiment.
Examination of the cytotoxic activity for the target conjugates was carried out in accordance with the SRB colorimetric assay protocol, as described previously.
In vitro anti-proliferative activity assay
Cells at a concentration of 0.50 x
Sulfo-Rhodamine-B stain (SRB) assay.
cell to the wall of the plate.
wells were prepared for each individual dose).
Unbound dye was removed by four

MOLT-4 = details: MOLT-4, 10 μM
A549/ATCC = details: 10 μM
EKVX = details: 10 μM
HOP-62 = details: HOP-62, 10 μM
HOP-92 = details: HOP-92, 10 μM
NCI-H226 = details: NCI-H226, 10 μM
NCI-H23 = details: NCI-H23, 10 μM
HCT-116 = details: HCT-116, 10 μM
U251 = details: U251, 10 μM
OVCAR-8 = details: OVCAR-8, 10 μM
NCI/ADR-RES = details: 10 μM
ACHN = details: 10 μM
RXF 393 = details: RXF 393, 10 μM
TK-10 = details: TK-10, 10 μM
MCF7 = details: MCF7, 10 μM
HS 578T = details: 10 μM

| Structure (SMILES) | GI % (NCI-H460) | GI % (HCC-2998) | IC50 (A-549) | GI % (MOLT-4) | GI % (A549/ATCC) | GI % (EKVX) | GI % (HOP-62) | GI % (HOP-92) | GI % (NCI-H226) | GI % (NCI-H23) | GI % (HCT-116) | GI % (U251) | GI % (OVCAR-8) | GI % (NCI/ADR-RES) | GI % (ACHN) | GI % (RXF 393) | GI % (TK-10) | GI % (MCF7) | GI % (HS 578T) |
| --- | --- | --- | --- | --- | --- | --- | --- | --- | --- | --- | --- | --- | --- | --- | --- | --- | --- | --- | --- |
| CCCn1cc(/C=N/N=C2\C(=O)Nc3ccc(OC(F)(F)F)cc32)c2ccccc21 [Compound 8b] | 11% | – (Only GI % higher than 10% are shown) | 9.2 ± 0.78 µM | 50% | 28% | 40% | 21% | – (Only GI % higher than 10% are shown) | – (Only GI % higher than 10% are shown) | 12% | 21% | 13.32% | 15% | 15% | 15% | – (Only GI % higher than 10% are shown) | – (Only GI % higher than 10% are shown) | 29% | – (Only GI % higher than 10% are shown) |
| CCCn1cc(C=NN=C2C(=O)Nc3ccc([N+](=O)[O-])cc32)c2ccccc21 [Compound 8c] | 19% | – (Only GI % higher than 10% are shown) | 12.3 ± 1.05 µM | – (Only GI % higher than 10% are shown) | 13% | – (Only GI % higher than 10% are shown) | – (Only GI % higher than 10% are shown) | 11% | – (Only GI % higher than 10% are shown) | – (Only GI % higher than 10% are shown) | 20% | 28% | 29% | – (Only GI % higher than 10% are shown) | – (Only GI % higher than 10% are shown) | – (Only GI % higher than 10% are shown) | – (Only GI % higher than 10% are shown) | 15% | – (Only GI % higher than 10% are shown) |
| CC(C)n1cc(C=NN=C2C(=O)Nc3ccccc32)c2ccccc21 [Compound 9] | – (Only GI % higher than 10% are shown) | – (Only GI % higher than 10% are shown) | 31.7 ± 2.27 µM | 13% | – (Only GI % higher than 10% are shown) | 38% | – (Only GI % higher than 10% are shown) | 14% | 16% | – (Only GI % higher than 10% are shown) | – (Only GI % higher than 10% are shown) | – (Only GI % higher than 10% are shown) | – (Only GI % higher than 10% are shown) | – (Only GI % higher than 10% are shown) | – (Only GI % higher than 10% are shown) | – (Only GI % higher than 10% are shown) | – (Only GI % higher than 10% are shown) | 10% | – (Only GI % higher than 10% are shown) |
| C=CCn1cc(C=NN=C2C(=O)Nc3ccccc32)c2ccccc21 [Compound 10a] | – (Only GI % higher than 10% are shown) | – (Only GI % higher than 10% are shown) | 17.3 ± 1.19 µM | 35% | – (Only GI % higher than 10% are shown) | – (Only GI % higher than 10% are shown) | – (Only GI % higher than 10% are shown) | – (Only GI % higher than 10% are shown) | 13% | 12% | 24% | 10% | 15% | – (Only GI % higher than 10% are shown) | – (Only GI % higher than 10% are shown) | 11% | – (Only GI % higher than 10% are shown) | 33% | – (Only GI % higher than 10% are shown) |
| C=CCn1cc(C=NN=C2C(=O)Nc3c(F)cccc32)c2ccccc21 [Compound 10c] | – (Only GI % higher than 10% are shown) | – (Only GI % higher than 10% are shown) | 43.8 ± 2.96 µM | 19% | – (Only GI % higher than 10% are shown) | 15% | – (Only GI % higher than 10% are shown) | – (Only GI % higher than 10% are shown) | 56% | – (Only GI % higher than 10% are shown) | 28% | – (Only GI % higher than 10% are shown) | 11% | – (Only GI % higher than 10% are shown) | 11% | – (Only GI % higher than 10% are shown) | – (Only GI % higher than 10% are shown) | 31% | – (Only GI % higher than 10% are shown) |
| C=CCn1cc(C=NN=C2C(=O)Nc3ccc(Cl)cc32)c2ccccc21 [Compound 10d] | – (Only GI % higher than 10% are shown) | – (Only GI % higher than 10% are shown) | 53.1 ± 4.13 µM | 14% | – (Only GI % higher than 10% are shown) | 33% | – (Only GI % higher than 10% are shown) | – (Only GI % higher than 10% are shown) | 41% | – (Only GI % higher than 10% are shown) | – (Only GI % higher than 10% are shown) | – (Only GI % higher than 10% are shown) | – (Only GI % higher than 10% are shown) | – (Only GI % higher than 10% are shown) | – (Only GI % higher than 10% are shown) | – (Only GI % higher than 10% are shown) | – (Only GI % higher than 10% are shown) | 18% | – (Only GI % higher than 10% are shown) |
